# Laboratory results taken from patent US20140288013A1, “METHODS AND COMPOSITIONS FOR THE MANAGEMENT OF CANCER USING 2-DG AND AN IGF-IR INHIBITOR” (priority 2011, published 2014).
# Like-named read-outs stand apart in the source and are kept apart here.
# Assays:
# A549 = assay: MTS assay, IC50 in LKB1-null NSCLC cell line A549; format: cell-based; conditions: Homo sapiens
# Description: (§1) 2000 cells were seed in each well of a 96-well plate, and exposed to BMS754807 or 2-DG at indicated concentration for 48 hrs.
# (§2) Analysis focused on NSCLC cell lines with LKB1 inactivation mutation. A549 and H460 both contain a Q37 to nonsense mutation, and H157 contains exon 2 and 3 deletion. All these mutations results in the loss of LKB1 protein function. MTS assay was used to measure the IC50 of BMS754807 and 2-DG in these cells (FIG. 1).
# [1] = biological target: IGF-I and IGF-binding protein 3 (IGFBP3) (Homo sapiens, UniProt P05019+P17936); conditions: 2-DG treatments; cited from earlier work
# H460 [2] = assay: Combination index analysis of cell proliferation, H460; format: cell-based; conditions: Homo sapiens
# AKT [3] = conditions: through IGF1R and PI3K; cited from earlier work
# H460 [4] = assay: MTS assay, IC50 in LKB1-null NSCLC cell line H460; format: cell-based; conditions: Homo sapiens
# Description: as §1, §2
# H157 [5] = assay: Combination index analysis of cell proliferation, H157; format: cell-based; conditions: Homo sapiens
# H157 [6] = assay: MTS assay, IC50 in LKB1-null NSCLC cell line H157; format: cell-based; conditions: Homo sapiens
# Description: as §1, §2
# IGF1R = assay: 2-DG induced IGF1R phosphorylation in LKB1-null NSCLC cell lines; format: cell-based
# AKT [7] = assay: 2-DG induced AKT phosphorylation in LKB1-null NSCLC cell lines; format: cell-based; conditions: for Akt phosphorylation induced by 2-DG: FIG. 2, cell line not named at the place; for 2-DG induced AKT phosphorylation: pre-incubated with 10 μM BMS754807 for 30 minutes, then 25 mM 2-DG
# Experimental: Whether 2-DG induced AKT phosphorylation can be blocked by BMS754807 was determined. LKB1-null NSCLC cell lines was pre-incubated with 10 μM of BMS754807 for 30 minutes, and then stimulated with 25 mM 2-DG to induce phosphorylation. BMS754807 blocked 2-DG induced IGF1R and AKT phosphorylation in H460, and H157 cells.
# Sequence of IGF-I and IGF-binding protein 3 (IGFBP3) (P17936 28-291, species assumed): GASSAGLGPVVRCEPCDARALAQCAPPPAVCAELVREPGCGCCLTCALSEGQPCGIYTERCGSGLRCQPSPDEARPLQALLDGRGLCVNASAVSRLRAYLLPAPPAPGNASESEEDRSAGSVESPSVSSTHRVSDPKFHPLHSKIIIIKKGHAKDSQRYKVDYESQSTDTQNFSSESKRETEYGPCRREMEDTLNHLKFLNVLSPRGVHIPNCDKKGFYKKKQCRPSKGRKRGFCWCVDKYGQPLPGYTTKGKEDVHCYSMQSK
# Sequence of IGF-I and IGF-binding protein 3 (IGFBP3) (P05019 49-118 limits assumed, species assumed): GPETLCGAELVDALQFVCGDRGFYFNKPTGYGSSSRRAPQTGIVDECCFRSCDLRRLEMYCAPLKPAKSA
structure (smiles),measurement,setting,value
"O=CC[C@@H](O)[C@H](O)[C@H](O)CO [2-DG, 2-Deoxyglucose]",IC50,"A549; A549, MTS assay, 48 hrs, read-out: IC50",15.7 mM
same,binding between IGF-I and IGFBP3,[1],disrupted
same,viability at 2500 µM,"H460 [2]; NCI-H460, 2-DG 2.5 mM, read-out: FA2-DG (fraction growth inhibition by 2-DG alone)",95%
same,viability at 5000 µM,"H460 [2]; NCI-H460, 2-DG 5.0 mM, read-out: FA2-DG (fraction growth inhibition by 2-DG alone)",81%
same,viability at 10000 µM,"H460 [2]; NCI-H460, 2-DG 10.0 mM, read-out: FA2-DG (fraction growth inhibition by 2-DG alone)",71%
same,activation of prosurvival oncoprotein AKT,AKT [3],activates
same,IC50,"H460 [4]; NCI-H460, H460, MTS assay, 48 hrs, read-out: IC50",14.1 mM
same,viability at 2500 µM,"H157 [5]; NCI-H157, 2-DG 2.5 mM, read-out: FA2-DG (fraction growth inhibition by 2-DG alone)",93%
same,viability at 5000 µM,"H157 [5]; NCI-H157, 2-DG 5.0 mM, read-out: FA2-DG (fraction growth inhibition by 2-DG alone)",80%
same,viability at 10000 µM,"H157 [5]; NCI-H157, 2-DG 10.0 mM, read-out: FA2-DG (fraction growth inhibition by 2-DG alone)",69%
same,IC50,"H157 [6]; NCI-H157, H157, MTS assay, 48 hrs, read-out: IC50",21.8 mM
"CC1(C(=O)Nc2ccc(F)nc2)CCCN1c1nc(Nc2cc(C3CC3)[nH]n2)c2cccn2n1 (stereo not shown) [BMS-754807, 1-(4-((5-cyclopropyl-1H-pyrazol-3-yl)amino)pyrrolo[2,1-f][1,2,4]triazin-2-yl)-N-(6-fluoropyridin-3-yl)-2-methylpyrrolidine-2-carboxamide]",IC50,"A549; A549, 48 h",0.0166 mM
same,viability at 5 µM,"H460 [2]; NCI-H460, BMS-754807 5.0 uM, read-out: FABMS-754807 (fraction growth inhibition by BMS-754807 alone)",80%
same,viability at 10 µM,"H460 [2]; NCI-H460, BMS-754807 10.0 uM, read-out: FABMS-754807 (fraction growth inhibition by BMS-754807 alone)",69%
same,2-DG induced IGF1R phosphorylation,"IGF1R; FIG. 2, cell line not named at the place",blocked
same,2-DG induced IGF1R phosphorylation,"IGF1R; H157 cells, pre-incubated with 10 μM BMS754807 for 30 minutes, then 25 mM 2-DG",blocked
same,2-DG induced IGF1R phosphorylation,"IGF1R; H460 cells, pre-incubated with 10 μM BMS754807 for 30 minutes, then 25 mM 2-DG",blocked
same,IC50,"H460 [4]; NCI-H460, 48 h",0.00325 mM
same,viability at 5 µM,"H157 [5]; NCI-H157, BMS-754807 5.0 uM, read-out: FABMS-754807 (fraction growth inhibition by BMS-754807 alone)",99%
same,viability at 10 µM,"H157 [5]; NCI-H157, BMS-754807 10.0 uM, read-out: FABMS-754807 (fraction growth inhibition by BMS-754807 alone)",82%
same,Akt phosphorylation induced by 2-DG,AKT [7],block
same,Akt phosphorylation induced by 2-DG,AKT [7]; listed as BMS754807,blocked
same,2-DG induced AKT phosphorylation,AKT [7]; H157 cells,blocked
same,2-DG induced AKT phosphorylation,AKT [7]; H460 cells,blocked
same,IC50,"H157 [6]; NCI-H157, 48 h",0.0108 mM
